The results in this text go back to US7288573B2, “Method of repelling insects” (priority 2001, dated 2007).

Holding throughout (type): in vivo
The nature of series [1]: Observation on the investigator's skin after application (Example 6). Particulars: applied at full strength (100%) to hand/arm.
The next series concerns Culex spp. Briefly: Mosquito repellency of 2-undecanone versus DEET, treated cloth on forearm (Example 8). The note with it: 5% and 20% in ethyl alcohol sprayed onto cloth; landings in 5 minutes. The method, then: 2-undecanone was dissolved in ethyl alcohol (v/v at 5% and 20%) and approximately 1 ml was sprayed onto cloth that was then wrapped around the investigator's forearm prior to insertion into a 59 cm×55 cm×59 cm mosquito cage containing approximately 100 Culex spp. adult mosquitoes. DEET was a formulated, commercial product (Cutter). The number of mosquito landings in 5 minutes was recorded as well as the overall behavior response of the mosquitoes. […] The most impressive evidence of this repellent effect was the observation that the mosquitoes immediately disperse away from the treated arm and actually stop flying, instead lining up on the wire screen of the cage.
The results are shown in FIG. 5 as a graph of repellency as a function of time for 0 hr, 3 hr and 6 hr post-application of the formulations (i) 21% DEET, (ii) 20% 2-undecanone (IBI-246) and (iii) 5% 2-undecanone (IBI-246), where repellency={[# mosquito landings in Control test/# mosquitoes present in Control)−(# mosquito landings in Experiment/# mosquitoes present in Experiment)] divided by (# mosquito landings in Control test/# mosquitoes present in Control)}×100.

Another series has as its system Aedes taeniorhynchus. As to the kind of experiment: Mosquito repellency of undecanone, treated gauze glove in cage. As to the method: Forty milliliters of a 2.5 percent solution of undecanone in absolute ethanol was added to a gauze glove (20×15 centimeters) in a 250 milliliter beaker. After soaking for 1 minute, the glove was laid onto aluminum foil in a fume hood for 13 minutes and then suspended by one end from the sash of the fume hood for 3 minutes. The ethanol appeared to be completely evaporated after this treatment as determined by touch. […] The same treatment was used without undecanone as a control. After the same drying steps, no odor of ethanol could be detected by smell. The control glove was the same physical dimensions and made from the same batch of material as the treatment. […]
Approximately 100 adult male and female mosquitoes (Aedes taeniorhynchus) (exact sex ratio not determined) were placed in a 12×12×14.5 inch stainless steel screened cage. […]
The following data are the control responses when the tester's hand covered by the ethanol treated (dried) glove was placed into the mosquito cage (at room temperature) for 20 seconds at the times indicated: 0 minutes, 10 landings and 1 bite; 10 minutes, 9-12 landings and 1 bite; 20 minutes, approximately 13 landings and no bites; and 40 minutes, approximately 13 landings and no bites. […] However, only sustained landings of about 5 seconds were recorded as a positive response along with actual bites. […]

Another series relates to cockroaches. As to the kind of experiment: Cockroach repellency, paste floor wax with 2-undecanone. The note with it: one percent by weight in paste floor wax. The source says:
A commercially available paste floor wax is combined with one percent by weight of 2-undecanone and the two ingredients mixed thoroughly together. The paste floor wax is then applied to a region of flooring and buffed. The same paste floor wax, without 2-undecanone, is applied to an adjacent region of flooring in the same amount and also buffed.

Turning to `CCCCCCCCCCCC(C)=O` [2-tridecanone], the “skin irritation on application” value in series [1] was “mildly irritating”.
Regarding `CCCCCCCCCC(C)=O` [2-undecanone], the “concentrations with the strongest repellent effect” value in the series on Culex spp. is “strongest effect at the 20% and 5% concentrations”. For the same compound, the landings and bites entry in the series on Aedes taeniorhynchus (glove soaked in 2.5 percent solution in ethanol, dried, hand in cage 20 seconds at 0 minutes to 4 hours and 40 minutes) is “No landings and no bites”. In addition, in the series on Aedes taeniorhynchus (glove soaked in 2.5 percent solution, first 3 to 4 hours), the host seeking behavior result is “no host seeking behavior”. Further, the “time cockroaches spend in treated region versus control region of flooring” value with cockroaches was “spend less time in the region containing 2-undecanone”.
